Source: patent US4362743A, “Antibacterial monic acid esters” (Beecham Group Limited, priority 1980, dated 1982)

Assays:
in vivo = details: mouse, 50 mg/kg
[1] = Mean serum concentrations in neonatal piglets after intramuscular or oral administration; type: in vivo; details: pig, 50 mg/kg; for concentration at 40 min: 40° (printed)
Procedure: Blood levels were assessed in neonatal piglets (2 to 4 animals per group and mean bodyweights about 2 kg). The dose was 50 mg/kg (dose solution=25 mg/ml in 25% ethanol). Doses were given by intramscular injection and orally by stomach tube. Piglets were beld at intervals up to 6 and at 24 hours, serum assayed microbiologically (B. subtilis ATCC 6633).

Compound	concentration at 5 min (in vivo; po) [ng/mL]	concentration at 10 min (in vivo; po) [ng/mL]	concentration at 20 min (in vivo; po) [ng/mL]	concentration at 0.5 h (in vivo; po) [ng/mL]	concentration at 0.75 h (in vivo; po) [ng/mL]	concentration at 1 h (in vivo; po) [ng/mL]	concentration at 1.5 h (in vivo; po) [ng/mL]	concentration at 5 min (in vivo; sc) [ng/mL]	concentration at 10 min (in vivo; sc) [ng/mL]	concentration at 20 min (in vivo; sc) [ng/mL]	concentration at 0.5 h (in vivo; sc) [ng/mL]	concentration at 0.75 h (in vivo; sc) [ng/mL]	concentration at 1 h (in vivo; sc) [ng/mL]	concentration at 1.5 h (in vivo; sc) [ng/mL]	further results
C/C(=C\C(=O)OCCCCCC=NN(C)C)C[C@@H]1OC[C@H](C[C@@H]2O[C@H]2[C@@H](C)[C@H](C)O)[C@@H](O)[C@H]1O [Example 6, 6-Dimethylhydrazonohexyl monate A]	3400	3400	680	< 600	< 600	< 600	< 600	12100	14800	9700	6800	3800	2300	< 600	
C/C(=C\C(=O)OC1CCC(=NO)CC1)C[C@@H]1OC[C@H](C[C@@H]2O[C@H]2[C@@H](C)[C@H](C)O)[C@@H](O)[C@H]1O (stereo partly shown) [Example 3, 4-Hydroxyiminocyclohexyl monate A]	3500	3500	2200	1900	1600	800	600	20600	23000	16600	7900	2900	1500	300	
C/C(=C\C(=O)OCCCC(=NO)c1ccccc1)C[C@@H]1OC[C@H](C[C@@H]2O[C@H]2[C@@H](C)[C@H](C)O)[C@@H](O)[C@H]1O [Example 1, 4-Hydroxyimino-4-phenylbutyl monate A]	1000	790	230	< 200	< 200	< 120	< 200	4400	6500	3100	1600	460	280	< 200	concentration at 40 min ([1]; im): 6300 ng/mL; concentration at 10 min ([1]; im): 7000 ng/mL; concentration at 20 min ([1]; im): 6700 ng/mL; concentration at 1 h ([1]; im): 6600 ng/mL; concentration at 2 h ([1]; im): 5200 ng/mL; concentration at 3 h ([1]; im, 3h): 2900 ng/mL; concentration at 4 h ([1]; im, 4h): 1700 ng/mL; concentration at 6 h ([1]; im, 6h): < 900 ng/mL; concentration at 40 min ([1]; po): 3300 ng/mL; concentration at 10 min ([1]; po): 3000 ng/mL; concentration at 20 min ([1]; po): 3000 ng/mL; concentration at 1 h ([1]; po): 1200 ng/mL; concentration at 2 h ([1]; po): < 1000 ng/mL
